Test results taken from patent publication US10316017B2, “COT modulators and methods of use thereof” (Gilead Sciences, Inc., priority 2015, dated 2019).
Where two headings read alike, the source gives them in different places.

What was measured:
[1] = test system: TNFα production in LPS-stimulated human monocytes; assay: Cot Monocyte TNFα Cell Based Assay; settings: Homo sapiens, Monocyte, read-out: EC50 TNF
Summary of the method: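 Human monocytes (5,000 cells/well) pretreated with compound for 1 hour at 37° C (0.5% DMSO), then stimulated with 50 pg/ml LPS for 4 hours. Total TNFα measured by TR-FRET after overnight antibody incubation at room temp, expressed as percent of control between unstimulated and stimulated cells.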

[2] = biological target: T1, human Cot catalytic domain (30-397 amino acids) (Homo sapiens, UniProt P41279); assay: High Throughput Cot Biochemical Assay (KinEASE TR-FRET); settings: read-out: IC50 HTRF
T1 construct: Purified recombinant human Cot catalytic domain (30-397 amino acids) was purchased from Cama Biosciences; purchased Cama Biosciences (so in the source)
Summary of the method: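 Recombinant human Cot catalytic domain (aa 30-397), 5 nM, with 1 μM STK3 peptide and 400 μM ATP in MOPS pH 7.0 buffer with MgOAc, DTT, BSA, NP-40, glycerol, 0.1% DMSO. Phosphorylated XL665-peptide detected by Eu-[…] antibody TR-FRET.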

[3] = TNFα in LPS-stimulated human monocytes
[4] = Cot KinEASE TR-FRET (HTRF) biochemical assay, 400 μM ATP
[5] = Cot biochemical HTRF (KinEASE TR-FRET) assay
[6] = LPS-stimulated human monocytes, TNFα TR-FRET
[7] = Cot KinEASE TR-FRET, 400 μM ATP

T1 sequence (P41279 30-397): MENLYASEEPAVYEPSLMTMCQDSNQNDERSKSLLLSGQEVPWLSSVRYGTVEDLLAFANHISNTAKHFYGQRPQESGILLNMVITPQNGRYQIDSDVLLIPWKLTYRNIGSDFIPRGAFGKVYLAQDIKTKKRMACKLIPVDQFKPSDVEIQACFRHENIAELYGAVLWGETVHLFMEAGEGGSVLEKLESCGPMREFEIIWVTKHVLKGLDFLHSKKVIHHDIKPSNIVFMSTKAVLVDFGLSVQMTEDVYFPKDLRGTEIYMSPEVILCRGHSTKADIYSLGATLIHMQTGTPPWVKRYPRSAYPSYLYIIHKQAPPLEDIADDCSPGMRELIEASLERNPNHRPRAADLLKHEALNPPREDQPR

| EC50 [1, 3] [nM] | IC50 [2, 4] [nM] | IC50 [2, 5] [nM] | Structure (SMILES) | also measured |
| --- | --- | --- | --- | --- |
| 361 | 26 | – | [2H][C@](Nc1cc(Cl)c2ncc(C#N)c(NCC(C)(C)CO)c2c1)(c1ccc(F)cc1)c1cn(C2CC2)nn1 [Example 308, (S)-8-chloro-6-(((1-cyclopropyl-1H-1,2,3-triazol-4-yl)(4-fluorophenyl)methyl-d)amino)-4-((3-hydroxy-2,2-dimethylpropyl)amino) quinoline-3-carbonitrile] | – |
| 500 | – | 4 | N#Cc1cnc2c(Cl)cc(N[C@@H](c3ccccc3)c3cn([C@@H]4CCNC[C@H]4O)nn3)cc2c1Nc1cccc(Cl)c1 [Example 535, 8-chloro-4-((3-chlorophenyl)amino)-6-(((S)-(1-((3R,4R)-3-hydroxypiperidin-4-yl)-1H-1,2,3-triazol-4-yl)(phenyl)methyl)amino) quinoline-3-carbonitrile] | – |
| – | – | – | CC(C)(C)CNc1c(C#N)cnc2c(C#N)cc(N[C@@H](c3ccc(F)cc3)c3cn(C4(c5ccncc5)CC4)nn3)cc12 [Example 983, (S)-6-(((4-fluorophenyl)(1-(1-(pyridin-4-yl)cyclopropyl)-1H-1,2,3-triazol-4-yl)methyl)amino)-4-(neopentylamino) quinoline-3,8-dicarbonitrile] | EC50 [1, 6]: 39 nM; IC50 [2, 7]: 11 nM |
| 184 | 3 | – | CC(C)(C)CNc1c(C#N)cnc2c(C#N)cc(N[C@@H](c3cccc(C(=O)N4CC(F)(F)C4)c3)c3cn(C4CC4)nn3)cc12 [Example 56, (S)-6-(((1-cyclopropyl-1H-1,2,3-triazol-4-yl)(3-(3,3-difluoroazetidine-1-carbonyl)phenyl)methyl)amino)-4-(neopentylamino) quinoline-3,8-dicarbonitrile] | – |
| 391 | 159 | – | [2H][C@](Nc1cc(Cl)c2ncc(C#N)c(NC3CCCCC3C)c2c1)(c1ccc(F)cc1)c1cn(C2CC2)nn1 (stereo partly drawn) [Example 321, 8-chloro-6-(((S)-(1-cyclopropyl-1H-1,2,3-triazol-4-yl)(4-fluorophenyl)methyl-d)amino)-4-((2-methylcyclohexyl)amino) quinoline-3-carbonitrile] | – |
| – | – | – | [2H][C@](Nc1cc(Cl)c2ncc(C#N)c(Nc3cccc(Cl)c3OC(F)(F)F)c2c1)(c1ccc(F)cc1)c1cn(C2CC2)nn1 [Example 966, (S)-8-chloro-4-((3-chloro-2-(trifluoromethoxy)phenyl)amino)-6-(((1-cyclopropyl-1H-1,2,3-triazol-4-yl)(4-fluorophenyl)methyl-d)amino)quinoline-3-carbonitrile] | EC50 [1, 6]: ≥ 1000 nM; IC50 [2, 7]: 86 nM |
| 887 | – | 28 | N#Cc1cnc2c(Cl)cc(N[C@@H](c3ccccc3)c3c[nH]nn3)cc2c1Nc1ccc(F)c(Cl)c1 [Example 667, (S)-8-chloro-4-((3-chloro-4-fluorophenyl)amino)-6-((phenyl(1H-1,2,3-triazol-4-yl)methyl)amino)quinoline-3-carbonitrile] | – |
| – | – | – | CC(C)(C)CNc1c(C#N)cnc2c(C#N)cc(N[C@H](c3cn(C4(C(N)=O)CCC4)nn3)c3ccccc3Cl)cc12 [Example 1014, (S)-1-(4-((2-chlorophenyl) ((3,8-dicyano-4-(neopentylamino)quinolin-6-yl)amino)methyl)-1H-1,2,3-triazol-1-yl)cyclobutane-1-carboxamide] | EC50 [1, 6]: 106 nM; IC50 [2, 7]: 3 nM |
| – | – | – | Cc1c(-c2ccnnc2)cccc1[C@H](Nc1cc(C#N)c2ncc(C#N)c(NCC(C)(C)C)c2c1)c1cn(C2(C(F)(F)F)CC2)nn1 [Example 1134, (S)-6-(((2-methyl-3-(pyridazin-4-yl)phenyl)(1-(1-(trifluoromethyl)cyclopropyl)-1H-1,2,3-triazol-4-yl)methyl)amino)-4-(neopentylamino)quinoline-3,8-dicarbonitrile] | EC50 [1, 6]: 57 nM; IC50 [2, 7]: 2 nM |
| 309 | 12 | – | [2H][C@](Nc1cc(Cl)c2ncc(C#N)c(NCC(C)(C)C#N)c2c1)(c1ccc(F)cc1)c1cn(C2CC2)nn1 [Example 299, (S)-8-chloro-4-((2-cyano-2-methylpropyl)amino)-6-(((1-cyclopropyl-1H-1,2,3-triazol-4-yl)(4-fluorophenyl)methyl-d)amino)quinoline-3-carbonitrile] | – |
| 2220 | 89 | – | [2H]C(Nc1cc(Cl)c2ncc(C#N)c(NCC(C)(C)C)c2c1)(c1ccc(F)cc1)c1cn(C2CC2)cn1 (stereo not shown) [Example 344, 8-chloro-6-(((1-cyclopropyl-1H-imidazol-4-yl)(4-fluorophenyl)methyl-d)amino)-4-(neopentylamino) quinoline-3-carbonitrile] | – |
| 1280 | 105 | – | [2H]C(Nc1cc(Cl)c2ncc(C#N)c(NC3CCC4CC43)c2c1)(c1ccc(F)cc1)c1cn(C2CC2)nn1 (stereo in doubt) [Example 251, 4-(bicyclo[3.1.0]hexan-2-ylamino)-8-chloro-6-(((S)-(1-cyclopropyl-1H-1,2,3-triazol-4-yl)(4-fluorophenyl)methyl-d)amino)quinoline-3-carbonitrile] | – |
| 12800 | – | 434 | CC(C)(C)N1CCC(n2cc([C@@H](Nc3cc(Cl)c4ncc(C#N)c(NCCCc5ccccc5)c4c3)c3ccc(Cl)cc3)nn2)CC1 [Example 681, (S)-6-(((1-(1-(tert-butyl)piperidin-4-yl)-1H-1,2,3-triazol-4-yl)(4-chlorophenyl)methyl)amino)-8-chloro-4-((3-phenylpropyl)amino)quinoline-3-carbonitrile] | – |
| – | – | – | CC(C)(C)CNc1c(C#N)cnc2c(Cl)cc(N[C@@H](c3ccc(F)cc3)c3cn(C4(c5cccnc5)CC4)nn3)cc12 [Example 997, (S)-8-chloro-6-(((4-fluorophenyl)(1-(1-(pyridin-3-yl)cyclopropyl)-1H-1,2,3-triazol-4-yl)methyl)amino)-4-(neopentylamino) quinoline-3-carbonitrile] | EC50 [1, 6]: 61 nM; IC50 [2, 7]: 48 nM |
| 337 | – | 14 | CC(C)(O)Cn1cc([C@@H](Nc2cc(Cl)c3ncc(C#N)c(Nc4ccc(F)c(Cl)c4)c3c2)c2ccccc2)nn1 [Example 610, (S)-8-chloro-4-((3-chloro-4-fluorophenyl)amino)-6-(((1-(2-hydroxy-2-methylpropyl)-1H-1,2,3-triazol-4-yl)(phenyl)methyl)amino) quinoline-3-carbonitrile] | – |
| 78 | 5 | – | N#Cc1cnc2c(Cl)cc(N[C@@H](c3ccc(F)cc3)c3cn(C4CC4)nn3)cc2c1N[C@H](CCF)c1ccccc1 [Compound 32] | – |
| 2280 | 96 | – | [2H][C@](Nc1cc(Cl)c2ncc(C#N)c(NCCc3ccccn3)c2c1)(c1ccc(F)cc1)c1cn(C2CC2)nn1 [Example 270, (S)-8-chloro-6-(((1-cyclopropyl-1H-1,2,3-triazol-4-yl)(4-fluorophenyl)methyl-d)amino)-4-((2-(pyridin-2-yl)ethyl)amino)quinoline-3-carbonitrile] | – |
| 598 | – | 17 | CC(C)n1cc([C@@H](Nc2cc(Cl)c3ncc(C#N)c(Nc4cnc(F)c(F)c4)c3c2)c2ccc(F)cc2)nn1 [Example 458, (S)-8-chloro-4-((5,6-difluoropyridin-3-yl)amino)-6-(((4-fluorophenyl)(1-isopropyl-1H-1,2,3-triazol-4-yl)methyl)amino)quinoline-3-carbonitrile] | – |
| 9720 | – | 786 | C[C@H](Nc1c(C#N)cnc2c(Cl)cc(N[C@@H](c3ccccc3)c3cn(C4CCN(C(C)(C)C)CC4)nn3)cc12)C1CCOCC1 [Example 522, 6-(((S)-(1-(1-(tert-butyl)piperidin-4-yl)-1H-1,2,3-triazol-4-yl)(phenyl)methyl)amino)-8-chloro-4-(((S)-1-(tetrahydro-2H-pyran-4-yl)ethyl)amino)quinoline-3-carbonitrile] | – |
| – | – | – | CC(C)(C)CNc1c(C#N)cnc2c(C#N)cc(N[C@@H](c3ccc(F)cc3)c3cn(C4(C(N)=O)CC4)nn3)cc12 [Example 977, (S)-1-(4-(((3,8-dicyano-4-(neopentylamino)quinolin-6-yl)amino)(4-fluorophenyl)methyl)-1H-1,2,3-triazol-1-yl)cyclopropane-1-carboxamide] | EC50 [1, 6]: 285 nM; IC50 [2, 7]: 6 nM |
| 81 | – | 1 | CC(C)(C)N1CCC(n2cc([C@@H](Nc3cc(Cl)c4ncc(C#N)c(Nc5ccc(F)c(Cl)c5)c4c3)c3cccc(C(=O)N4CCC4)c3)nn2)CC1 [Example 675, (S)-6-(((3-(azetidine-1-carbonyl)phenyl)(1-(1-(tert-butyl)piperidin-4-yl)-1H-1,2,3-triazol-4-yl)methyl)amino)-8-chloro-4-((3-chloro-4-fluorophenyl)amino)quinoline-3-carbonitrile] | – |
| 1100 | – | 85 | N#Cc1cnc2c(Cl)cc(N[C@@H](c3ccc(F)cc3)c3cn(CC(F)(F)F)nn3)cc2c1Nc1cnc(F)c(F)c1 [Example 512, (S)-8-chloro-4-((5,6-difluoropyridin-3-yl)amino)-6-(((4-fluorophenyl)(1-(2,2,2-trifluoroethyl)-1H-1,2,3-triazol-4-yl)methyl)amino)quinoline-3-carbonitrile] | – |

| Structure (SMILES) | EC50 [1, 3] [nM] | IC50 [2, 4] [nM] | IC50 [2, 5] [nM] | also measured |
| --- | --- | --- | --- | --- |
| [2H][C@](Nc1cc(Cl)c2ncc(C#N)c(NCC[Si](C)(C)C)c2c1)(c1ccc(F)cc1)c1cn(C2CC2)nn1 [Example 237, (S)-8-chloro-6-(((1-cyclopropyl-1H-1,2,3-triazol-4-yl)(4-fluorophenyl)methyl-d)amino)-4-((2-(trimethylsilyl)ethyl)amino) quinoline-3-carbonitrile] | – | 231 | – | EC50 [1]: 5120 nM |
